One experiment has as its target T1, Rat FAAH-1 (Rattus norvegicus, UniProt P97612).
T1 construct: expressed in transfected cells
T1 sequence (P97612 1-579): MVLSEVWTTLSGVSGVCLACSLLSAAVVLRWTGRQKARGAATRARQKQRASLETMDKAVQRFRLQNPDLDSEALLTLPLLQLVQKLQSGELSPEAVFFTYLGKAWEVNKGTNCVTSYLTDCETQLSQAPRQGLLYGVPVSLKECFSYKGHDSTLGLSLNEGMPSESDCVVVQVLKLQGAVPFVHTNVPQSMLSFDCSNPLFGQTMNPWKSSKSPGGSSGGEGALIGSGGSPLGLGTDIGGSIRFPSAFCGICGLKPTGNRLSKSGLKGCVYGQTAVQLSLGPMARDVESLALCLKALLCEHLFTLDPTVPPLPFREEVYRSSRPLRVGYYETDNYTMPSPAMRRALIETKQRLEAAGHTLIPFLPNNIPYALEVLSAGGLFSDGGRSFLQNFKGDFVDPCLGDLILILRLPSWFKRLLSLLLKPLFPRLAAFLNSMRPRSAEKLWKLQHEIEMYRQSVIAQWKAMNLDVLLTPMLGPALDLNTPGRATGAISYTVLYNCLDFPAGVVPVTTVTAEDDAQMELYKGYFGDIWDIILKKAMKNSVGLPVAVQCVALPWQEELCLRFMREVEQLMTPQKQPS
The experiment is described as follows: Rat FAAH-1 assay (Assay Method 2), 3H-anandamide hydrolysis in cell homogenate. In kind it is biochemical. The method, then:
A. Transfection of Cells with Rat FAAH-1
(§1) A 10-cm tissue culture dish with a confluent monolayer of SK-N-MC cells was split 2 days (d) prior to transfection. Using sterile technique, the media was removed and the cells were detached from the dish by the addition of trypsin. One fifth of the cells were then placed onto a new 10-cm dish. Cells were grown in a 37° C. incubator with 5% CO2 in Minimal Essential Media Eagle with 10% Fetal Bovine Serum. After 2 d, cells were approximately 80% confluent. These cells were removed from the dish with trypsin and pelleted in a clinical centrifuge. The pellet was re-suspended in 400 μL complete media and transferred to an electroporation cuvette with a 0.4 cm gap between the electrodes. Supercoiled rat FAAH cDNA (1 μg) was added to the cells and mixed. The voltage for the electroporation was set at 0.25 kV, and the capacitance was set at 960 μF. After electroporation, the cells were diluted into complete media (10 mL) and plated onto four 10-cm dishes. Because of the variability in the efficiency of electroporation, four different concentrations of cells were plated. The ratios used were 1:20, 1:10, and 1:5, with the remainder of the cells being added to the fourth dish. The cells were allowed to recover for 24 h before adding the selection media (complete media with 600 μg/mL G418). After 10 d, dishes were analyzed for surviving colonies of cells. Dishes with well-isolated colonies were used. Cells from individual colonies were isolated and tested.
(§2) The assay mixture consisted of 50 μL of the cell homogenate, 10 μL of the test compound, and 40 μL of anandamide [1-^3H-ethanolamine] (^3H-AEA, Perkin-Elmer, 10.3 Ci/mmol), which was added last, for a final tracer concentration of 80 nM. The reaction mixture was incubated at rt for 1 h. During the incubation, 96-well Multiscreen filter plates (catalog number MAFCNOB50; Millipore, Bedford, Mass., USA) were loaded with 25 μL of activated charcoal (Multiscreen column loader, catalog number MACL09625, Millipore) and washed once with 100 μL of MeOH. Also during the incubation, 96-well DYNEX MicroLite plates (catalog number NL510410) were loaded with 100 μL of MicroScint40 (catalog number 6013641, Packard Bioscience, Meriden, Conn., USA). After the 1 h incubation, 60 μL of the reaction mixture were transferred to the charcoal plates, which were then assembled on top of the DYNEX plates using Centrifuge Alignment Frames (catalog number MACF09604, Millipore). The unbound labeled ethanolamine was centrifuged through to the bottom plate (5 min at 2000 rpm), which was preloaded with the scintillant, as described above. The plates were sealed and left at rt for 1 h before counting on a Hewlett Packard TopCount.
(§3) Where activity is shown as greater than (>) a particular value, the value is the solubility limit of the compound in the assay medium or the highest concentration tested in the assay.

A further experiment deals with T2, FAAH (Homo sapiens, UniProt O00519).
T2 sequence (O00519 1-579): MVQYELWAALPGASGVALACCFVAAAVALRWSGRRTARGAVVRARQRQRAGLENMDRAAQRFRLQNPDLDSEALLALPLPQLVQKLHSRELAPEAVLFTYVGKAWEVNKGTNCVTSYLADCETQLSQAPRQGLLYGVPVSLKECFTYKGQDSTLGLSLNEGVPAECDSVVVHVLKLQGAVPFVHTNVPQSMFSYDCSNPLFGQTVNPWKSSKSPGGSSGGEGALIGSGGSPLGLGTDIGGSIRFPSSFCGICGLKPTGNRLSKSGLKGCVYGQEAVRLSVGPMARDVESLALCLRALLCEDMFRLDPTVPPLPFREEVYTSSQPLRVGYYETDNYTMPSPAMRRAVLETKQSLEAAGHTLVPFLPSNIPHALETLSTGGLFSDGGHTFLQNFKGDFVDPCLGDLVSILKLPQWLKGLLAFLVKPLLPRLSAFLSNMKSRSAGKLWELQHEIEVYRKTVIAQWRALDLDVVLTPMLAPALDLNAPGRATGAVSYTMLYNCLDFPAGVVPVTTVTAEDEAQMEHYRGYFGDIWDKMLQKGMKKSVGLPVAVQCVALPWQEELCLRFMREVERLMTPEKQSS
The experiment is described as follows: Human FAAH assay (Assay Method 1), 3H-anandamide hydrolysis in cell homogenate. The experiment is classed as biochemical. Details: expressed in transfected cells; alternatively T84 frozen cell pellets (endogenous FAAH). The method, then:
A. Transfection of Cells with Human FAAH
as §1, with “Supercoiled human” for “Supercoiled rat”
as §2, with “[1-3H-ethanolamine]” for “[1-^3H-ethanolamine]”
as §3

Structures can show the parent of a compound that is named as a salt.

Regarding `Cc1ccc2sc(-c3cc(NC[C@H](N)c4ccccc4)ncn3)cc2c1` [Example 9, (1R)—N^2-[6-(5-Methyl-1-benzothiophen-2-yl)pyrimidin-4-yl]-1-phenylethane-1,2-diamine hydrochloride acid salt], the values for the IC50 on Rat FAAH-1 and against FAAH were 0.32 µM and 0.02 µM, respectively.

With `N[C@@H](CNc1cc(-c2cc(F)c(OC(F)F)c(F)c2)ncn1)c1ccccc1` [Example 12, (1R)—N^2-{6-[4-(Difluoromethoxy)-3,5-difluorophenyl]pyrimidin-4-yl}-1-phenylethane-1,2-diamine hydrochloride acid salt], the IC50 (as a rule, the point on the concentration scale where inhibition reaches its midpoint) at Rat FAAH-1 was 0.1 µM; against FAAH, 0.012 µM.

For the molecule `N[C@H](CNc1cc(-c2ccc(C(F)(F)F)c(Cl)c2)ncn1)c1ccc(Cl)cc1` [Example 38, (1S)—N^2-1-(4-Chloro-phenyl)-[6-(3-chloro-4-trifluoromethyl-phenyl)-pyrimidin-4-yl]-ethane-1,2-diamine, trifluoroacetic acid salt], the IC50 at Rat FAAH-1 was determined as 2.2 µM; against FAAH, 1.6 µM.

Regarding `N#Cc1ccc([C@H](N)CNc2cc(-c3ccc(C(F)(F)F)c(Cl)c3)ncn2)cc1` [Example 33, (1S)-4-{1-Amino-2-[6-(3-chloro-4-trifluoromethyl-phenyl)-pyrimidin-4-ylamino]-ethyl}-benzonitrile], the IC50 came out at 1 µM against Rat FAAH-1 and 0.57 µM at FAAH.

With `N#Cc1ccc([C@@H](N)CNc2cc(-c3ccc(C(F)(F)F)c(Cl)c3)ncn2)cc1` [Example 34, (1R)-4-{1-Amino-2-[6-(3-chloro-4-trifluoromethyl-phenyl)-pyrimidin-4-ylamino]-ethyl}-benzonitrile], the IC50 came to 0.13 µM at Rat FAAH-1 and 0.077 µM on FAAH.

For `N[C@@H](CNc1cc(-c2ccc(OCC(F)(F)F)cc2)ncn1)c1ccccc1` [Example 20, (1R)-1-Phenyl-N^2-{6-[4-(2,2,2-trifluoroethoxy)phenyl]pyrimidin-4-yl}ethane-1,2-diamine hydrochloride acid salt], the values for the IC50 against Rat FAAH-1 and at FAAH were 2 µM and 0.13 µM, respectively.

Take `N[C@H](CNc1cc(-c2ccc(C(F)(F)F)c(Cl)c2)ncn1)c1ccc(F)cc1` [Example 28, (1S)—N^2-[6-(3-Chloro-4-trifluoromethyl-phenyl)-pyrimidin-4-yl]-1-(4-fluoro-phenyl)-ethane-1,2-diamine]: the IC50 stood at 0.9 µM at Rat FAAH-1 and 0.6 µM against FAAH.

With `N[C@@H](CNc1cc(-c2ccc(Cl)c(C(F)(F)F)c2)ncn1)c1ccccc1` [Example 17, (1R)—N^2-{6-[4-Chloro-3-(trifluoromethyl)phenyl]pyrimidin-4-yl}-1-phenylethane-1,2-diamine hydrochloride acid salt], the IC50 against Rat FAAH-1 is 0.9 µM; at FAAH, 0.25 µM.

Consider `NC(CNc1cc(-c2ccc(C(F)(F)F)c(Cl)c2)ncn1)c1ccccc1F` (centres unmarked) [Example 35, N^2-[6-(3-Chloro-4-trifluoromethyl-phenyl)-pyrimidin-4-yl]-1-(2-fluoro-phenyl)-ethane-1,2-diamine], for which the IC50 at Rat FAAH-1 came to 0.28 µM; against FAAH it was 0.17 µM.

`O=C(N[C@@H](CNc1cc(-c2ccc(C(F)(F)F)c(Cl)c2)ncn1)c1ccccc1)C(F)(F)F` [Example 26, N-[(1R)-2-({6-[3-chloro-4-(trifluoromethyl)phenyl]pyrimidin-4-yl}amino)-1-phenylethyl]-2,2,2-trifluoroacetamide]: the results for the IC50 against Rat FAAH-1 and at FAAH were more than 10 µM and 1.6 µM, respectively.

With `COc1ccccc1[C@@H](N)CNc1cc(-c2ccc(C(F)(F)F)c(Cl)c2)ncn1` [Example 56, (1R)—N^2-[6-(3-Chloro-4-trifluoromethyl-phenyl)-pyrimidin-4-yl]-1-(2-methoxy-phenyl)-ethane-1,2-diamine], the results for the concentration for half-maximal inhibition (IC50) against Rat FAAH-1 and on FAAH were 6 µM and 1.2 µM, respectively.

As for `N[C@@H](CNc1cc(-c2cc3cc(OC(F)(F)F)ccc3s2)ncn1)c1ccccc1` [Example 25, (1R)-1-Phenyl-N^2-{6-[5-(trifluoromethoxy)-1-benzothiophen-2-yl]pyrimidin-4-yl}ethane-1,2-diamine hydrochloride acid salt], the IC50 against Rat FAAH-1 was found to be 0.37 µM; against FAAH, 0.08 µM.

With `N[C@@H](CNc1cc(-c2cccc(OC(F)(F)F)c2)ncn1)c1ccccc1` [Example 18, (1R)-1-Phenyl-N^2-{6-[3-(trifluoromethoxy)phenyl]pyrimidin-4-yl}ethane-1,2-diamine hydrochloride acid salt], the values for the IC50 against Rat FAAH-1 and against FAAH were more than 10 µM and 0.92 µM, respectively.
